This note sets out measurements from PubChem BioAssay (NCI).

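96-well plates; 48 h exposure; 5 concentrations. Endpoints by linear interpolation between flanking doses. Not reached: highest tested concentration assigned. TGI marks complete inhibition of growth.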 *1 amine or outer side, *2 acyl side, *3 side chain or, on linkers, in order; H or OH if unused. Where a SMILES comes first, the peptide text is derived from it. The star is where a group is joined. γGlu = O=C(O)[CH](CCC(=O)[*:2])N[*:1]; NHOH = ON* Some results are limits rather than exact numbers.

Holding throughout (assay): NCI-60 cell line screen, 48 h
Experiment [1] relates to SK-OV-3 ovarian.
The subject of experiment [2] is MALME-3M melanoma.
For experiment [3], the system named is BT-549 breast.
Experiment [4] concerns HOP-62 NSCLC.
Experiment [5] has as its system IGROV1 ovarian.
The test system of experiment [6] is KM12 colon.
Experiment [7] deals with UACC-257 melanoma.
Experiment [8] deals with TK-10 renal.
Experiment [9] deals with UACC-62 melanoma.
The test system of experiment [10] is COLO 205 colon.
Experiment [11] has as its system T-47D breast.
The subject of experiment [12] is LOX IMVI melanoma.
Experiment [13] has as its system SR leukemia.

In the case of `CN(C)CC1CCC/C(=C\c2ccc(Cl)c(Cl)c2)C1=O` (stereo not given), the TGI in experiment [1] worked out at 20.3 µM; in experiment [2] it was 20.3 µM; in [3], 5.01 µM; in experiment [4] it was 26.8 µM; in experiment [5], 12.1 µM; in experiment [6] it was 4.04 µM. For the same compound, the TGI is 21.7 µM in [7]; 8.19 µM in [8]; 12.8 µM in experiment [9]; 7.27 µM in experiment [10]; 5.71 µM in [11].
`CCOC(=O)c1ccc(-c2onc(C)c2Br)[nH]1`: the TGI in experiment [1], in experiment [2], in experiment [3], in experiment [4], in [5] and in experiment [6] was over 100 µM each time. The TGI in experiment [7], in [8], in experiment [9], in experiment [10] and in [11] was over 100 µM each time.
Turning to `NC(CCC(=O)NC(CCC(=O)NO)C(=O)NCC(=O)O)C(=O)O` (stereo not given) (γGlu-Glu(NHOH)-Gly-OH; configuration not given here), the TGI in experiment [1], in experiment [3], in [4], in experiment [5], in experiment [12] and in [6] was over 100 µM each time. Further, the TGI in [7], in [8], in [9], in [10] and in [11] was over 100 µM throughout.
For the compound `Cc1cc(C)c2c(-c3ccccc3)cc(=O)[nH]c2c1`, the TGI in [1], in experiment [2], in experiment [4], in experiment [5], in [12] and in experiment [6] was over 100 µM in each case. Besides, the TGI in experiment [7], in [8], in [9], in experiment [10] and in [11] was over 100 µM in each case.
Regarding `CCOC(=O)N1CCC2(CC1)C[C@](Sc1ccccc1)(C(C)=O)[C@H](C)O2`, the TGI in experiment [1], in experiment [2], in experiment [4], in experiment [5], in experiment [13] and in [12] was over 100 µM throughout. For the same compound, the TGI in experiment [6], in experiment [7], in [8], in experiment [9], in experiment [10] and in experiment [11] was over 100 µM each time.
As for `O=[N+]([O-])C(/C(Cl)=C(/Cl)N1CCOCC1)=C1\Nc2ccccc2O1`, the TGI in experiment [1], in experiment [2], in [3], in experiment [4], in experiment [6] and in [7] was over 100 µM each time. In addition, the TGI in [9], in [10] and in experiment [11] was over 100 µM in each case.
For the compound `C/C(=N/NC(=S)N1CCCCCC1)c1cccc(/C(C)=N\NC(=S)N2CCCCCC2)n1`, the TGI in [1] came to 4.1 µM; in experiment [2] it was 2.28 µM; in experiment [4] it was 3.82 µM; in experiment [5], 2.86 µM; in experiment [13], 5.84 µM; in [12] it was 3.41 µM. Also, the TGI in experiment [6] is 3.16 µM; in experiment [7], 3.45 µM; in experiment [8], 3.29 µM; in [9], 5.27 µM; in experiment [10] it was 3.23 µM; in experiment [11], 5.95 µM.
For the compound `CN(C)CCNc1c(O)c2c(c(O)c1Cl)C(=O)C=CC2=O`, the TGI was determined as 32.1 µM in [1]; 3.64 µM in experiment [2]; 3.17 µM in [3]; 3.65 µM in [4]; 3 µM in experiment [5]; 3.39 µM in experiment [6]. The TGI in experiment [7] is 3.09 µM; in experiment [8] it was 5.68 µM; in experiment [9] it was 3.74 µM; in [10] it was 3.47 µM; in [11] it was 4.38 µM.
Take `CN(C)N1C(=C(C#N)C#N)C(c2ccccc2)CC1C#N` (stereo not given): the TGI in experiment [1], in experiment [2], in experiment [4], in experiment [5], in experiment [12] and in [6] was over 100 µM throughout. Moreover, the TGI in [7], in [8], in experiment [9], in [10] and in [11] was over 100 µM each time.
For `O=c1[nH]c2c(C(F)(F)F)c(Cl)c(-c3ccccc3)nc2o1`, the TGI in experiment [1] is 64.7 µM; in [3], 60.3 µM; in experiment [4], over 100 µM; in experiment [5], over 100 µM; in experiment [12] it was over 100 µM; in [6], over 100 µM. Besides, the TGI in experiment [7] was 59.9 µM; in experiment [8], over 100 µM; in experiment [9] it was over 100 µM; in experiment [10], 28.1 µM; in experiment [11], 90.9 µM.
